Where a name gives a salt, the structure may show the parent alone.
Legend:
α7 nAChR [1] = target: T1, α7 nAChR (Homo sapiens, UniProt P36544); assay: α7 responses on co-application with the type II PAM TQS (silent agonism); assay type: cell-based; details: for α7 functional classification (silent agonist / inactive): inactive alone, active with a PAM = silent agonist
T1 construct: expressed in transfected cells; host or cells: Xenopus laevis oocytes (injected RNA)
Method: (§1) Compounds were co-applied at a concentration of 100 µM with 30 µM racemic TQS (Figure 3A). All compounds except S4, S5, and S8 gave large responses when co-applied with TQS, consistent with silent agonism of α7 (see Table S1 for ANOVA). Active compounds were also evaluated across a range of concentrations with the alternative PAM, PNU-120596 (Figure 3B). The curve-fit values for Imax (Table 1) should be taken only as approximation of the relative efficacies of the compounds, due to the large variability frequently observed in PNU-120596-potentiated responses, as evidenced by the large SEMs of the responses obtained with high concentrations.
(§2) Figure 3 Responses of α7 nAChR to sulfonium compounds coapplied with PAMs. (A) Potentiation of α7 responses with 30 µM racemic TQS. Shown are the average net-charge responses of seven or eight oocytes ± SEM. (B) Concentration-response studies of peak currents generated by compounds that gave positive responses with TQS, coapplied with 10 µM PNU-120596. Each point represents the average (±SEM) of at least four oocytes.
The human nAChR clones were obtained from Jon Lindstrom (University of Pennsylvania, Philadelphia, PA, USA). Mouse muscle subunit clones were obtained from Jim Boulter (Salk Institute, La Jolla, CA, USA) and Paul Gardner (Dartmouth, Hanover, NH, USA). The human resistance-to-cholinesterase 3 (RIC3) clone was obtained from Millet Treinin (Hebrew University, Jerusalem, Israel) and co-injected with α7 to improve the level and speed of α7 receptor expression without affecting the pharmacological properties of the receptors. Subsequent to linearization and purification of the plasmid DNAs, RNAs were prepared using the mMessage mMachine in vitro RNA transcription kit (Ambion, Austin, TX, USA).
(§3) Experiments were conducted using OpusXpress 6000A (Molecular Devices, Union City, CA, USA). Both the voltage and current electrodes were filled with 3 M KCl. Oocytes were voltage-clamped at −60 mV at room temperature (24 °C). The oocytes were bath-perfused with Ringer’s solution (115 mM NaCl, 2.5 mM KCl, 1.8 mM CaCl2, 10 mM HEPES, and 1 μM atropine, pH 7.2) at 2 mL/min for α7 receptors, or 4 mL/min for heteromeric nAChR. To evaluate the effects of experimental compounds, responses were compared to control ACh-evoked responses, defined as the average of two initial applications of ACh made before test applications. ACh control concentrations were 60 µM for α7 receptors; 100 µM for α4(3)β2(2) and α3β4 receptors; 30 µM for α4β2α6β2β3 and muscle-type (αβ1εδ) receptors; and 10 µM for α4(3)β2(2) and α4(2)β2(2)α5 receptors.
(§4) Solutions were applied from 96-well plates via disposable tips. Drug applications were 12 s in duration, followed by 181 s washout periods for α7 receptors, or 6 s in duration followed by 301 s washout periods for heteromeric nAChR. The responses were calculated as both peak current amplitudes and net charge, as previously described. Data were collected at 50 Hz, filtered at 20 Hz for α7 receptors or filtered at 5 Hz for heteromeric nAChR, and analyzed by Clampfit (Molecular Devices, San Jose, CA, USA) and Excel (Microsoft, Redmond, WA, USA). Data were expressed as means ± SEM from at least four oocytes for each experiment and plotted with Kaleidagraph 4.5.2 (Abelbeck Software, Reading, PA, USA). Multi-cell averages were calculated for comparisons of complex responses. Averages of the normalized data were calculated for each of the 10,322 points in each of the 206.44 s traces (acquired at 50 Hz), as well as the standard errors for those averages.

α7 nAChR [2] = target: T1, α7 nAChR; assay: α7 concentration-response on co-application with 10 µM PNU-120596; assay type: cell-based; details: peak currents, co-applied with 10 µM PNU-120596, Hill fit; for IMax (PNU Activation): approximation only
Method: as §1, §2, §3, §4

pKa by titration = assay type: physicochemical; details: phenolic hydroxyl, data not shown for S9, S10, read-out: pKa
From the text: One of the questions that emerges from the data is why aromatic sulfoniums as structurally similar as S5, S9, and S10 provide different responses when coapplied with TQS. Indeed, compounds S5 and S9 virtually overlap in their best docked poses (Supplementary Figure S1), but the α7 response of S9 and TQS was dramatically greater than that of S5 and TQS (p < 0.001, Table S1). The formation of cation–pi interactions is a key feature of the binding of nicotinic orthosteric ligands, and the electronic distribution of the cation can be compared qualitatively in a series of compounds using molecular electrostatic potentials (MEPs). Analysis of the MEPs shown in Figure 9 reveal that the substituents on the benzene ring can modulate the intensity of the positive charge on the sulfonium center. Compound S5, for instance, has two hydroxyl groups which are strongly electron donating, and in comparison to compound S9, which has only one hydroxyl group, the intensity of the positive charge is […]. Another factor may be that a lone pair on the ortho hydroxyl substituent is donating electron density through space to the neighboring sulfonium, redistributing its positive charge. Compound S10 also has an ortho hydroxyl group, but unlike compound S5, compound S10 also has a nitro group, which is a strong electron-withdrawing group that may offset the electron-donating impact of the ortho hydroxyl group. Inspection of the MEP surface shown in Figure 9 does indicate that, relative to S5, the S10 sulfonium bears greater positive electrostatic potential. Given that compounds such as para-nitrophenol are acidic, with a pKa of ~7 for the phenolic hydroxyl, we also considered whether the deprotonated forms of S5, S9, and S10 might be accessible at the pH of our experiments.
Thus, all three compounds have varying proportions of the phenolic OH in the phenoxide form at the pH of Ringers solution used in the experiments. […] Future work on analogs of these compounds may be focused on substituents that are non-ionizable, and thus preserve a positive molecular charge derived from the sulfonium center.

T1 sequence (P36544 23-502): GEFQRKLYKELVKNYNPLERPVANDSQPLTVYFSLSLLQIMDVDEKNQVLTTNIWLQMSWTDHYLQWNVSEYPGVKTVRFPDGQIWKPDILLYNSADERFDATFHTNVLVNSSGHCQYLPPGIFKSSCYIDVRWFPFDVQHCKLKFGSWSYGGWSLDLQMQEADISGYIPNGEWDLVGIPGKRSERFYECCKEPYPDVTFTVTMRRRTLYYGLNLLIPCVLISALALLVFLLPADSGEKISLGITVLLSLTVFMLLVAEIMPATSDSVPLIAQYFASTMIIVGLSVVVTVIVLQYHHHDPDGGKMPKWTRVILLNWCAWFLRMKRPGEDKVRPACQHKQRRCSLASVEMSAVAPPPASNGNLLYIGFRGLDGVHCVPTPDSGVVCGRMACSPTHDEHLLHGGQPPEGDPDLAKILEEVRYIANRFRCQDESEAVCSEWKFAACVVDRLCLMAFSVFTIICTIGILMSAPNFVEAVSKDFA

SMILES | α7 functional classification (silent agonist / inactive) (α7 nAChR [1]) | IMax (PNU Activation) (α7 nAChR [2]) | EC50 (α7 nAChR [2]; read-out: EC50 (PNU Activation)) [µM] | pKa (pKa by titration) | response when co-applied with TQS (α7 nAChR [1]; 100 µM compound with 30 µM racemic TQS, net charge) | relative activity as α7 silent agonist / desensitizer (rank order) (α7 nAChR [1]; 100 µM with 30 µM TQS, Figure 3A)
C[S+](C)c1cc([N+](=O)[O-])ccc1O.[Br-] [Compound S10, (2-hydroxy-5-nitrophenyl)dimethylsulfonium bromide] | silent agonist activity | 4.6 ± 0.1 | 45.5 ± 50.6 | ~5 | – | –
C[S+](C)C.[I-] [Compound S1, trimethylsulfonium iodide] | – | 9.1 ± 0.05 | – | – | produced potentiated α7 currents | –
C[S+](C)c1ccc(O)cc1 [Compound S9, (4-hydroxyphenyl)dimethylsulfonium methyl sulfate] | silent agonist activity | 3.98 ± 0.14 | – | ~7.3 | – | most desensitizing

Source: paper PMC8464850, “Sulfonium Ligands of the α7 nAChR” (Molecules, 2021)
